Test results published in patent US20130142831A1, “COMPOUNDS FOR INFLAMMATION AND IMMUNE-RELATED USES” (Synta Pharmaceuticals Corp., priority 2004, published 2013).

Test system: IL-2 production
Assay: Inhibition of IL-2 production in PHA-activated Jurkat cells
Assay type: cell-based
Settings: Homo sapiens, PHA 2.5 μg/mL, 20 hours
Method: Jurkat cells were placed in a 96 well plate (0.5 million cells per well in 1% FBS medium) then test compounds of this invention were added at different concentrations. After 10 minutes, the cells were activated with PHA (final concentration 2.5 μg/mL) and incubated for 20 hours at 37° C. under CO2. The final volume was 200 μL. Following incubation, the cells were centrifuged and the supernatants collected and stored at −70° C. prior to assaying for IL-2 production. A commercial kit (IL-2 Eli-pair, Diaclone Research, Besancon, France) was used to detect production of IL-2, from which dose response curves were obtained. The IC50 value was calculated as the concentration at which. 50% of maximum IL-2 production after stimulation was inhibited versus a non-stimulation control.

SMILES	IC50 (bins given in nM) [nM]	IC50 (bins given with μM limit) [nM]
COc1ccc2c(c1)nc(C(F)(F)F)n2-c1ccc(NC(=O)c2cccc(F)c2F)cc1 [Compound 4, 2,3-Difluoro-N-[4-(2-trifluoromethyl-5-methoxy-benzoimidazol-1-yl)-phenyl]-benzamide]	< 100	
COc1ccc2c(c1)nc(C(F)(F)F)n2-c1ccc(NC(=O)c2cccc3ccccc23)cc1 [Compound 83, Naphthalene-1-carboxylic acid {N-[4-(2-trifluoromethyl-5-methoxy-benzoimidazol-1-yl)-phenyl]} amide]	100 to 500	
CC(C)(C)c1cnc(-c2ccc3c(c2)nc(C(F)(F)F)n3-c2ccc(NC(=O)c3ccco3)cc2)o1 [Compound 69, Furan-2-carboxylic acid (N-{4-[2-trifluoromethyl-5-(5-tert-butyl-oxazol-2-yl)-benzoimidazol-1-yl]-phenyl}) amide]	100 to 500	
COc1ccc2c(c1)nc(C(F)(F)F)n2-c1ccc(NC(=O)C2CCCCC2)cc1 [Compound 106, N-[4-(2-trifluoromethyl-5-methoxy-benzoimidazol-1-yl)-phenyl]-cyclohexanecarboxylic acid amide]	< 100	
COc1ccc2c(c1)nc(C(F)(F)F)n2-c1ccc(NC(=O)c2cc(F)c(Cl)cc2Cl)cc1 [Compound 7, 2,4-Dichloro-5-fluoro-N-[4-(2-trifluoromethyl-5-methoxy-benzoimidazol-1-yl)-phenyl]-benzamide]	< 100	
COc1ccc2c(c1)nc(C(F)(F)F)n2-c1ccc(NC(=O)c2ccc(Cl)cc2)cc1 [Compound 108, 4-Chloro-N-[4-(2-trifluoromethyl-5-methoxy-benzoimidazol-1-yl)-phenyl]-benzamide]	< 100	
O=C(Nc1ccc(-n2c(C(F)(F)F)nc3cc(N4C(=O)c5ccccc5C4=O)ccc32)cc1)c1cccc(F)c1F [Compound 57, 2,3-Difluoro-N-{4-[2-trifluoromethyl-5-(1,3-dioxo-isoindol-2-yl)-benzoimidazol-1-yl]-phenyl}-benzamide]		> 1000
COc1ccc2c(c1)nc(C(F)(F)F)n2-c1ccc(NC(=O)c2ccc3ccccc3c2)cc1 [Compound 74, Naphthalene-2-carboxylic acid {N-[4-(2-trifluoromethyl-5-methoxy-benzoimidazol-1-yl)-phenyl]} amide]	100 to 500	
COc1ccc2c(c1)nc(C(F)(F)F)n2-c1ccc(NC(=O)CC(C)C)cc1 [Compound 116, 3-Methyl-N-[4-(2-trifluoromethyl-5-methoxy-benzoimidazol-1-yl)-phenyl]-butyramide]	< 100	
C=CC(=O)Nc1ccc(-n2c(C(F)(F)F)nc3cc(OC)ccc32)cc1 [Compound 122, N-[4-(2-trifluoromethyl-5-methoxy-benzoimidazol-1-yl)-phenyl]-acrylamide]		> 1000
CCCCc1ccc(C(=O)Nc2ccc(-n3c(C(F)(F)F)nc4cc(OC)ccc43)cc2)cc1 [Compound 66, 4-Butyl-N-[4-(2-trifluoromethyl-5-methoxy-benzoimidazol-1-yl)-phenyl]-benzamide]	100 to 500	
Fc1ccc(F)c(NC(=S)Nc2ccc(-n3c(C(F)(F)F)nc4ccccc43)nc2)c1 [Compound 34, N′-[2-(2-trifluoromethyl-benzoimidazol-1-yl)-pyrid-5-yl]-N-(2,5-difluoro-phenyl)-thiourea]	100 to 500	
COc1ccc2c(c1)nc(C(F)(F)F)n2-c1ccc(NC(=O)C2CCCN2C(=O)C(F)(F)F)cc1 (stereo not drawn) [Compound 121, 1-(2,2,2-Trifluoroacetyl)-N-[4-(2-trifluoromethyl-5-methoxy-benzoimidazol-1-yl)-phenyl]-pyrrolidine-2-carboxylic acid amide]		> 1000
COc1ccc2c(c1)nc(C(F)(F)F)n2-c1ccc(NC(=O)c2cc(F)ccc2F)cc1 [Compound 100, 2,5-Difluoro-N-[4-(2-trifluoromethyl-5-methoxy-benzoimidazol-1-yl)-phenyl]-benzamide]	< 100	
O=C(Nc1ccc(-n2c(C(F)(F)F)nc3cc(O)c(O)cc32)cc1)c1cccc(F)c1F [Compound 60, 2,3-Difluoro-N-[4-(2-trifluoromethyl-5,6-dihydroxy-benzoimidazol-1-yl)-phenyl]-benzamide]		> 1000
COc1ccc(OC)c(C(=O)Nc2ccc(-n3c(C(F)(F)F)nc4cc(OC)ccc43)cc2)c1 [Compound 130, 2,5-Dimethoxy-N-[4-(2-trifluoromethyl-5-methoxy-benzoimidazol-1-yl)-phenyl]-benzamide]		> 1000
CC(=O)c1ccc2c(c1)nc(C(F)(F)F)n2-c1ccc(NC(=O)c2cccc(F)c2F)cc1 [Compound 133, 2,3-Difluoro-N-[4-(2-trifluoromethyl-5-acetyl-benzoimidazol-1-yl)-phenyl]-benzamide]	100 to 500	
CC(C)Oc1ccc2c(c1)nc(C(F)(F)F)n2-c1ccc(NC(=O)c2cccc(F)c2F)cc1 [Compound 112, 2,3-Difluoro-N-[4-(2-trifluoromethyl-5-isopropoxy-benzoimidazol-1-yl)-phenyl]-benzamide]	< 100	

SMILES	IC50 (bins given in nM) [nM]	IC50 (bins given with μM limit) [nM]
COc1ccc2c(c1)nc(C(F)(F)F)n2-c1ccc(NC(=O)c2ccc([N+](=O)[O-])cc2)cc1 [Compound 78, 4-Nitro-N-[4-(2-trifluoromethyl-5-methoxy-benzoimidazol-1-yl)-phenyl]-benzamide]	100 to 500	
COc1ccc2c(c1)nc(C(F)(F)F)n2-c1ccc(NC(=O)c2cc(F)c(F)c(F)c2F)cc1 [Compound 71, 2,3,4,5-Tetrafluoro-N-[4-(2-trifluoromethyl-5-methoxy-benzoimidazol-1-yl)-phenyl]-benzamide]	< 100	
COc1ccc2c(c1)nc(C(F)(F)F)n2-c1ccc(NC(=O)c2ccco2)cc1 [Compound 120, Furan-2-carboxylic acid {N-[4-(2-trifluoromethyl-5-methoxy-benzoimidazol-1-yl)-phenyl]}-amide]		> 1000
O=S(=O)(Nc1ccc(-n2c(C(F)(F)F)nc3ccccc32)cc1)c1cccc(F)c1F [Compound 52, 2,3-Difluoro-N-[4-(trifluoromethyl-benzoimidazol-1-yl)-phenyl]-benzenesulfonamide]		> 1000
CSc1nc2ccccc2n1-c1ccc(NC(=O)c2cccc(F)c2F)cc1 [Compound 11, 2,3-Difluoro-N-[4-(2-methylsulfanyl-benzoimidazol-1-yl)-phenyl]-benzamide]	< 100	
O=C(Nc1ccc(-n2c(I)nc3ccccc32)cc1)c1cccc(F)c1F [Compound 33, 2,3-Difluoro-N-[4-(2-iodo-benzoimidazol-1-yl)-phenyl]-benzamide]	100 to 500	
CCOC(=O)CCC(=O)Nc1ccc(-n2c(C(F)(F)F)nc3cc(OC)ccc32)cc1 [Compound 125, N-[4-(2-trifluoromethyl-5-methoxy-benzoimidazol-1-yl)-phenyl]-succinamic acid ethyl ester]		> 1000
Cc1cc(NC(=O)c2cccc(F)c2F)ccc1-n1c(C(F)(F)F)nc2ccccc21 [Compound 17, 2,3-Difluoro-N-[3-methyl-4-(2-trifluoromethyl-benzoimidazol-1-yl)-phenyl]-benzamide]	100 to 500	
CCCc1ccc(C(=O)Nc2ccc(-n3c(C(F)(F)F)nc4cc(OC)ccc43)cc2)cc1 [Compound 85, 4-Propyl-N-[4-(2-trifluoromethyl-5-methoxy-benzoimidazol-1-yl)-phenyl]-benzamide]	100 to 500	
C[S+]([O-])c1nc2ccccc2n1-c1ccc(NC(=O)c2cccc(F)c2F)cc1 (stereo not drawn) [Compound 40, 2,3-Difluoro-N-[4-(2-methanesulfinyl-benzoimidazol-1-yl)-phenyl]-benzamide]	100 to 500	
COc1ccc2c(c1)nc(C(F)(F)F)n2-c1ccc(NC(=O)c2cc([N+](=O)[O-])cc([N+](=O)[O-])c2)cc1 [Compound 81, 3,5-Dinitro-N-[4-(2-trifluoromethyl-5-methoxy-benzoimidazol-1-yl)-phenyl]-benzamide]	100 to 500	
CC(C)(C)OC(=O)Nc1cc(F)c(F)c(C(=O)Nc2ccc(-n3c(C(F)(F)F)nc4ccccc43)cc2)c1F [Compound 22, N-(3-{N-[4-(2-trifluoromethyl-benzoimidazol-1-yl)-phenyl]-carbamoyl}-2,4,5-trifluoro-phenyl)-carbamic acid t-butyl ester]	100 to 500	
Nc1ccc2c(c1)nc(C(F)(F)F)n2-c1ccc(NC(=O)c2cccc(F)c2F)cc1 [Compound 39, 2,3-Difluoro-N-[4-(2-trifluoromethyl-5-amino-benzoimidazol-1-yl)-phenyl]-benzamide]	100 to 500	
COc1ccc2c(c1)nc(C(F)(F)F)n2-c1ccc(NC(=O)c2ccc(I)cc2)cc1 [Compound 73, 4-Iodo-N-[4-(2-trifluoromethyl-5-methoxy-benzoimidazol-1-yl)-phenyl]-benzamide]	100 to 500	
COc1ccc2c(c1)nc(C(F)(F)F)n2-c1ccc(NC(=O)c2ccc(F)c(F)c2F)cc1 [Compound 3, 2,3,4-Trifluoro-N-[4-(2-trifluoromethyl-5-methoxy-benzoimidazol-1-yl)-phenyl]-benzamide]	< 100	
COc1cc2nc(C(F)(F)F)n(-c3ccc(NC(=O)c4cccc(F)c4F)cc3)c2cc1OC [Compound 32, 2,3-Difluoro-N-[4-(2-trifluoromethyl-5,6-dimethoxy-benzoimidazol-1-yl)-phenyl]-benzamide]	100 to 500	
CC(C)(C)c1cnc(-c2ccc3c(c2)nc(C(F)(F)F)n3-c2ccc(NC(=O)c3cc(F)ccc3F)cc2)o1 [Compound 67, 2,5-Difluoro-N-{4-[2-trifluoromethyl-5-(5-tert-butyl-oxazol-2-yl)-benzoimidazol-1-yl]-phenyl}-benzamide]		> 1000
CS(=O)(=O)c1ccc2c(c1)nc(C(F)(F)F)n2-c1ccc(NC(=O)c2cccc(F)c2F)cc1 [Compound 65, 2,3-Difluoro-N-[4-(2-trifluoromethyl-5-methanesulfonyl-benzoimidazol-1-yl)-phenyl]-benzamide]	100 to 500	
